According to US20030096237A1, “Determination of the ability of patients to respond to a tumor treatment” (priority 2000, published 2003):

Tested on: CNCM I-2545 and CNCM I-2546
Assay: oligonucleotide array analysis, clustering of genes by mode of regulation
Type: cell-based, human
Conditions: 1st symbol CNCM I-2545, 2nd CNCM I-2546
Method: All these cell lines were cultured in RPMI medium supplemented with 10% FCS, glutamine (2 mM), sodium pyruvate (1 mM), non-essential amino acids and HEPES buffer (10 mM) (all from GIBCO Life Sciences, Paisley, UK). When confluent, the cells were passaged by trypsinization.
Cultured melanoma cells were harvested by scraping and total cellular RNA was extracted. 10 μg from each sample were used directly as templates for cDNA synthesis using a commercial kit (Roche Molecular Biochemicals, Rotkreuz, Switzerland). The T7 promoter sequence incorporated into the cDNA synthesis primer allowed template amplification and biotin labeling by in vitro transcription using a commercial kit (Affymetrix, Santa Clara, Calif.). After alkaline heat fragmentation […] was hybridised to the array (Affymetrix, Santa Clara, Calif.) and all subsequent steps were performed following standard procedures as supplied with the arrays. Raw data were collected with a confocal laser scanner (Hewlett Packard, Palo Alto, Calif.) using GeneChip software v3.1 (Affymetrix, Santa Clara, Calif.).
Raw data were normalized based on the total chip signal obtained upon hybridisation of ME15 cell line cDNA. This array was selected because: i) the 5′/3′ intensity ratio of control genes was smaller than 3; ii)>25% of the genes are called “present” by Genechip; iii) the image appearance is homogeneous with low background and no sign of mechanical chip damage.
The normalized average difference (nAD) between the signals of the perfect and of the mismatch probesets for each gene was used as the expression level of a given gene. At least one nAD value in a pairwise comparison of data has to exceed 50 to be included. Based on nAD, change factors related to IFN-α exposure were also calculated. Negative nAD values were set to 20 in order to avoid the calculation of artificially high modifications. In order to exclude artefacts, only genes with robust change factors, greater than 2-fold, were included in the analysis. […] Genes were clustered according to their mode of regulation.
Patterns of genes expressed in IFN-α sensitive and resistant melanoma cell lines were investigated upon 48 hour culture in the presence of IFN-α. CNCM I-2546 and CNCM I-2545 were studied in detail.
In Table 2 below, CNCM I-2546 and CNCM I-2545 cultured for 48 hours in the absence or in the presence of 100 U/ml IFN-α were used to assay cytokine modulated gene expression as matched with data obtained in fibrosarcoma cells. This analysis yielded six clusters of genes. […] Data are presented as average difference of signal intensity between match and mismatch probesets.
In Table 3 below, CNCM I-2546 and CNCM I-2545 cell lines cultured for 48 hours in the absence or in the presence of 100 U/ml IFN-α were used to identify novel cytokine induced genes whose expression was not found to be modulated in fibrosarcoma cells. Cluster 1 includes genes inducible in the CNCM I-2546 sensitive but not in the CNCM I-2545 resistant cell line. Cluster 2 comprises genes inducible in both lines. Data are presented as average difference of signal intensity between match and mismatch probesets.

cluster's characteristics M19650 2′,3′-cyclic nucleotide 3prime-phosphodiesterase (Cluster 1): ˜u
cluster's characteristics U50648 interferon-inducible rna-dependent protein kinase (pkr) (Cluster 1): ˜u
cluster's characteristics X02874 2-5A synthetase (1.6 kb) (Cluster 1): ˜u
cluster's characteristics L40387 thyroid receptor interactor (trip14) (Cluster4): du
cluster's characteristics L42243 ifnar2 gene (interferon receptor) (Cluster 5): d˜
cluster's characteristics X90846 mixed lineage kinase 2 (Cluster 5): d˜
cluster's characteristics D32050 alanyl-trna synthetase (Table 3 Cluster 1): ˜u
cluster's characteristics L13210 mac-2 binding protein (Table 3 Cluster 1): ˜u
cluster's characteristics L37043 casein kinase i epsilon (Table 3 Cluster 1): ˜u
cluster's characteristics U18018 ela enhancer binding protein (ela-f) (Table 3 Cluster 1): ˜u
cluster's characteristics U47025 fetal brain glycogen phosphorylase b (Table 3 Cluster 1): ˜u
cluster's characteristics U50327 protein kinase c substrate 80k-h gene (prkcsh) (Table 3 Cluster 1): ˜u
cluster's characteristics U65579 mitochondrial nadh dehydrogenase-ubiquinone (Table 3 Cluster 1): ˜u
cluster's characteristics U69126 fuse binding protein 2 (fbp2) (Table 3 Cluster 1): ˜u
cluster's characteristics U91316 acyl-coa thioester hydrolase (Table 3 Cluster 1): ˜u
cluster's characteristics X95325 dna binding protein a variant (Table 3 Cluster 1): ˜u
cluster's characteristics Z26491 gene catechol o-methyltransferase (Table 3 Cluster 1): ˜u
cluster's characteristics D78132 rheb gene, ras-related gtp binding protein gene (Table 3 Cluster 2): uu
cluster's characteristics L35249 vacuolar h + -atpase mr 56,000 subunit (ho57) (Table 3 Cluster 2): uu
cluster's characteristics U70063 human acid ceramidase (Table 3 Cluster 2): uu
cluster's characteristics X70848 protein phosphatase 1, catalytic subunit (Table 3 Cluster 2): uu
cluster's characteristics Z47055 farnesyl pyrophosphate synthetase like (Table 3 Cluster 2): uu
Substance: IFN-α
cluster's characteristics D28137 bst-2 (Cluster 1): ˜u
cluster's characteristics D49824 hla-b null allele (Cluster 1): ˜u
cluster's characteristics HG658 major histocompatibility complex, class 1 c (Cluster 1): ˜u
cluster's characteristics HG2917 major histocompatibility complex, class i, e (Cluster 1): ˜u
cluster's characteristics J00105 beta-2 microglobulin gene (Cluster 1): ˜u
cluster's characteristics J04164 interferon-inducible protein 27-sep (Cluster 1): ˜u
cluster's characteristics M13755 interferon-induced 17-kda/15-kda protein (Cluster 1): ˜u
cluster's characteristics M94880 mhc class i (hla-a*8001) (Cluster 1): ˜u
cluster's characteristics U22970 16-jun gene, interferon-inducible peptide (6-16) (Cluster 1): ˜u
cluster's characteristics U51127 interferon regulatory factor 5 (Cluster 1): ˜u
cluster's characteristics X07730 prostate specific antigen (Cluster 1): ˜u
cluster's characteristics X57351 1-8d gene from interferon-inducible gene family (Cluster 1): ˜u
cluster's characteristics X57522 ring4 cdna (Cluster 1): ˜u
cluster's characteristics X67325 p27 (Cluster 1): ˜u
cluster's characteristics X96401 rox protein (Cluster 1): ˜u
cluster's characteristics Z56281 interferon regulatory factor 3 (Cluster 1): ˜u
cluster's characteristics M98343 amplaxin (ems1) (Cluster2): uu
cluster's characteristics J03909 gamma-interferon-inducible protein (ip-30) (Cluster3): u˜
cluster's characteristics M92642 alpha-1 type xvi collagen (col16a1) (Cluster3): u˜
cluster's characteristics U41515 dss1 (Cluster3): u˜
cluster's characteristics M97935 transcription factor isgf-3 (Cluster4): du
cluster's characteristics U01824 glutamate/aspartate transporter (Cluster4): du
cluster's characteristics U53830 interferon regulatory factor 7a (Cluster4): du
cluster's characteristics U72882 interferon-induced leucine zipper protein (ifp35) (Cluster4): du
cluster's characteristics J00212 leukocyte interferon (ifn-alpha) (Cluster 5): d˜
cluster's characteristics K01900 lymphocyte interferon alpha type 201 (Cluster 5): d˜
cluster's characteristics M79462 pml-1 (Cluster 5): d˜
cluster's characteristics U52513 rig-g (Cluster 5): d˜
cluster's characteristics M30818 interferon-induced cellular resistance mediator protein (Cluster 6): ˜d
cluster's characteristics X15949 interferon regulatory factor-2 (irf-2) (Cluster 6): ˜d
cluster's characteristics D21235 hhr23a protein (Table 3 Cluster 1): ˜u
cluster's characteristics D28137 bst-2 (Table 3 Cluster 1): ˜u
cluster's characteristics D50914 EST (Table 3 Cluster 1): ˜u
cluster's characteristics HG1612 macmarcks (Table 3 Cluster 1): ˜u
cluster's characteristics K03515 neuroleukin (Table 3 Cluster 1): ˜u
cluster's characteristics M31013 nonmuscle myosin heavy chain (nmhc) (Table 3 Cluster 1): ˜u
cluster's characteristics M34338 spermidine synthase (Table 3 Cluster 1): ˜u
cluster's characteristics S81914 iex-1 = radiation-inducible immediate-early gene (Table 3 Cluster 1): ˜u
cluster's characteristics U09579 melanoma differentiation associated (mda-6) (Table 3 Cluster 1): ˜u
cluster's characteristics U18009 chromosome 17q21 clone lf113 (Table 3 Cluster 1): ˜u
cluster's characteristics U61263 acetolactate synthase homolog (Table 3 Cluster 1): ˜u
cluster's characteristics U65932 extracellular matrix protein 1 (ecm1) (Table 3 Cluster 1): ˜u
cluster's characteristics U72206 guanine nucleotide regulatory factor (lfp40) (Table 3 Cluster 1): ˜u
cluster's characteristics X04412 plasma gelsolin (Table 3 Cluster 1): ˜u
cluster's characteristics X76538 mpv17 (Table 3 Cluster 1): ˜u
cluster's characteristics Y00264 amyloid a4 precursor (Table 3 Cluster 1): ˜u
cluster's characteristics J04182 lysosomal membrane glycoprotein-1 (lamp1) (Table 3 Cluster 2): uu
cluster's characteristics J04444 cytochrome c-1 gene (Table 3 Cluster 2): uu
cluster's characteristics L07633 interferon-gamma (Table 3 Cluster 2): uu
cluster's characteristics M60784 ul snrnp-specific protein (Table 3 Cluster 2): uu
cluster's characteristics M65028 heterogeneous nuclear ribonucleoprotein a/b (Table 3 Cluster 2): uu
cluster's characteristics U78525 human eukaryotic translation initiation factor (eif3) (Table 3 Cluster 2): uu
